This series can be described thus: Gel formation and CD of expected cleavage fragments. It is filed as physicochemical.

As for KSLSLS [MDP4a], the “Gel formation / self-assembly” value (phosphate buffer, physiological pH, in words) is “no longer able to assemble and form insoluble aggregates”. Moreover, for the setting “see supporting information”, the “CD spectrum (secondary structure)” value is given as “simple random coil signature”.

(Values after article PMC2857986 (Journal of the American Chemical Society, 2010).)
